Reference: ChEMBL document CHEMBL1268953, “Discovery of novel 2-aryl-4-benzoyl-imidazoles targeting the colchicines binding site in tubulin as potential anticancer agents” (J Med Chem, 2010)

tested on: not listed separately; experiment: Cytotoxicity against human WM164 cells after 48 hrs by sulforhodamine B assay; type: functional, cell-based; settings: Homo sapiens, WM164, 48 h

Question: For O=C(c1cc(O)c(O)c(O)c1)c1c[nH]c(-c2ccc(O)c(O)c2)n1, which IC50 is on record?
Answer: Its IC50 is over 10 µM.

Question: For COc1ccc(C(=O)c2cnc(-c3ccccc3)n2S(=O)(=O)c2ccccc2)cc1, which IC50 is on record?
Answer: The IC50 was over 10 µM.

Question: With COc1cccc(C(=O)c2cnc(-c3ccccc3)n2S(=O)(=O)c2ccccc2)c1 as the compound, how does the IC50 read?
Answer: The IC50 was over 10 µM.

Question: With Cc1ccc(C(=O)c2cnc(-c3ccccc3)n2S(=O)(=O)c2ccccc2)cc1 as the compound, how does the IC50 read?
Answer: The IC50 was over 10 µM.

Question: Which IC50 does the source give for COc1cc(C(=O)c2c[nH]c(-c3ccccc3)n2)cc(OC)c1OC here?
Answer: Its IC50 is 0.1 µM.

Question: Which IC50 does the source give for COc1ccc(C(=O)c2c[nH]c(-c3ccccc3)n2)cc1 here?
Answer: The IC50 was over 10 µM.

Question: For COc1cccc(C(=O)c2c[nH]c(-c3ccccc3)n2)c1, which IC50 is on record?
Answer: The IC50 was over 10 µM.

Question: For O=C(c1ccc(F)cc1)c1cnc(-c2ccccc2)n1S(=O)(=O)c1ccccc1, which IC50 is on record?
Answer: Its IC50 is 0.596 µM.

Question: For O=C(c1cccc(F)c1)c1cnc(-c2ccccc2)n1S(=O)(=O)c1ccccc1, which IC50 is on record?
Answer: Its IC50 is over 10 µM.

Question: For COc1ccc(C(=O)c2c[nH]c(-c3ccccc3)n2)cc1OC, which IC50 is on record?
Answer: Its IC50 is over 10 µM.

Question: For COc1ccc(C(=O)n2ccnc2-c2ccccc2)cc1, which IC50 is on record?
Answer: Its IC50 is over 10 µM.

tested on: PC-3; experiment: cells; settings: Homo sapiens, PC-3, 48 h
Description: Cytotoxicity against human PC3 cells after 48 hrs by sulforhodamine B assay

Question: For O=C(c1cc(O)c(O)c(O)c1)c1c[nH]c(-c2ccc(O)c(O)c2)n1, which IC50 is on record?
Answer: Its IC50 is over 10 µM.

Question: Which IC50 does the source give for COc1ccc(C(=O)c2cnc(-c3ccccc3)n2S(=O)(=O)c2ccccc2)cc1 here?
Answer: Its IC50 is over 10 µM.

Question: With COc1cccc(C(=O)c2cnc(-c3ccccc3)n2S(=O)(=O)c2ccccc2)c1 as the compound, how does the IC50 read?
Answer: Its IC50 is over 10 µM.

Question: With Cc1ccc(C(=O)c2cnc(-c3ccccc3)n2S(=O)(=O)c2ccccc2)cc1 as the compound, how does the IC50 read?
Answer: The IC50 was over 10 µM.

Question: With COc1cc(C(=O)c2c[nH]c(-c3ccccc3)n2)cc(OC)c1OC as the compound, how does the IC50 read?
Answer: Its IC50 is 0.29 µM.

Question: For COc1ccc(C(=O)c2c[nH]c(-c3ccccc3)n2)cc1, which IC50 is on record?
Answer: Its IC50 is over 10 µM.

Question: With COc1cccc(C(=O)c2c[nH]c(-c3ccccc3)n2)c1 as the compound, how does the IC50 read?
Answer: The IC50 was over 10 µM.

Question: Which IC50 does the source give for O=C(c1ccc(F)cc1)c1cnc(-c2ccccc2)n1S(=O)(=O)c1ccccc1 here?
Answer: The IC50 was 2.23 µM.

Question: Which IC50 does the source give for O=C(c1cccc(F)c1)c1cnc(-c2ccccc2)n1S(=O)(=O)c1ccccc1 here?
Answer: The IC50 was over 10 µM.

Question: For COc1ccc(C(=O)c2c[nH]c(-c3ccccc3)n2)cc1OC, which IC50 is on record?
Answer: The IC50 was over 10 µM.

Question: Which IC50 does the source give for COc1ccc(C(=O)n2ccnc2-c2ccccc2)cc1 here?
Answer: Its IC50 is over 10 µM.

tested on: A-375; experiment: Cytotoxicity against human A375 cells after 48 hrs by sulforhodamine B assay; type: functional, cell-based; settings: Homo sapiens, A-375, 48 h

Question: Which IC50 does the source give for O=C(c1cc(O)c(O)c(O)c1)c1c[nH]c(-c2ccc(O)c(O)c2)n1 here?
Answer: Its IC50 is over 10 µM.

Question: With COc1ccc(C(=O)c2cnc(-c3ccccc3)n2S(=O)(=O)c2ccccc2)cc1 as the compound, how does the IC50 read?
Answer: Its IC50 is over 10 µM.

Question: For COc1cccc(C(=O)c2cnc(-c3ccccc3)n2S(=O)(=O)c2ccccc2)c1, which IC50 is on record?
Answer: The IC50 was over 10 µM.

Question: For Cc1ccc(C(=O)c2cnc(-c3ccccc3)n2S(=O)(=O)c2ccccc2)cc1, which IC50 is on record?
Answer: The IC50 was over 10 µM.

Question: Which IC50 does the source give for COc1cc(C(=O)c2c[nH]c(-c3ccccc3)n2)cc(OC)c1OC here?
Answer: The IC50 was 0.16 µM.

Question: For COc1ccc(C(=O)c2c[nH]c(-c3ccccc3)n2)cc1, which IC50 is on record?
Answer: Its IC50 is over 10 µM.

Question: Which IC50 does the source give for COc1cccc(C(=O)c2c[nH]c(-c3ccccc3)n2)c1 here?
Answer: The IC50 was over 10 µM.

Question: Which IC50 does the source give for O=C(c1ccc(F)cc1)c1cnc(-c2ccccc2)n1S(=O)(=O)c1ccccc1 here?
Answer: The IC50 was 0.63 µM.

Question: Which IC50 does the source give for O=C(c1cccc(F)c1)c1cnc(-c2ccccc2)n1S(=O)(=O)c1ccccc1 here?
Answer: The IC50 was over 10 µM.

Question: With COc1ccc(C(=O)c2c[nH]c(-c3ccccc3)n2)cc1OC as the compound, how does the IC50 read?
Answer: The IC50 was over 10 µM.

Question: With COc1ccc(C(=O)n2ccnc2-c2ccccc2)cc1 as the compound, how does the IC50 read?
Answer: Its IC50 is over 10 µM.

tested on: DU-145; experiment: cells; settings: Homo sapiens, DU-145, 48 h
Description: Cytotoxicity against human DU145 cells after 48 hrs by sulforhodamine B assay

Question: Which IC50 does the source give for O=C(c1cc(O)c(O)c(O)c1)c1c[nH]c(-c2ccc(O)c(O)c2)n1 here?
Answer: The IC50 was over 10 µM.

Question: For COc1ccc(C(=O)c2cnc(-c3ccccc3)n2S(=O)(=O)c2ccccc2)cc1, which IC50 is on record?
Answer: Its IC50 is over 10 µM.

Question: With COc1cccc(C(=O)c2cnc(-c3ccccc3)n2S(=O)(=O)c2ccccc2)c1 as the compound, how does the IC50 read?
Answer: Its IC50 is over 10 µM.

Question: For Cc1ccc(C(=O)c2cnc(-c3ccccc3)n2S(=O)(=O)c2ccccc2)cc1, which IC50 is on record?
Answer: Its IC50 is over 10 µM.

Question: For COc1cc(C(=O)c2c[nH]c(-c3ccccc3)n2)cc(OC)c1OC, which IC50 is on record?
Answer: The IC50 was 0.2 µM.

Question: With COc1ccc(C(=O)c2c[nH]c(-c3ccccc3)n2)cc1 as the compound, how does the IC50 read?
Answer: Its IC50 is over 10 µM.

Question: With COc1cccc(C(=O)c2c[nH]c(-c3ccccc3)n2)c1 as the compound, how does the IC50 read?
Answer: The IC50 was over 10 µM.

Question: For O=C(c1ccc(F)cc1)c1cnc(-c2ccccc2)n1S(=O)(=O)c1ccccc1, which IC50 is on record?
Answer: The IC50 was 0.846 µM.

Question: With O=C(c1cccc(F)c1)c1cnc(-c2ccccc2)n1S(=O)(=O)c1ccccc1 as the compound, how does the IC50 read?
Answer: Its IC50 is over 10 µM.

Question: For COc1ccc(C(=O)c2c[nH]c(-c3ccccc3)n2)cc1OC, which IC50 is on record?
Answer: The IC50 was over 10 µM.

Question: For COc1ccc(C(=O)n2ccnc2-c2ccccc2)cc1, which IC50 is on record?
Answer: The IC50 was over 10 µM.

tested on: not listed separately; experiment: Cytotoxicity against mouse B16-F1 cells after 48 hrs by sulforhodamine B assay; type: functional, cell-based; settings: Mus musculus, B16-F1, 48 h

Question: With O=C(c1cc(O)c(O)c(O)c1)c1c[nH]c(-c2ccc(O)c(O)c2)n1 as the compound, how does the IC50 read?
Answer: The IC50 was over 10 µM.

Question: For COc1ccc(C(=O)c2cnc(-c3ccccc3)n2S(=O)(=O)c2ccccc2)cc1, which IC50 is on record?
Answer: Its IC50 is over 10 µM.

Question: With COc1cccc(C(=O)c2cnc(-c3ccccc3)n2S(=O)(=O)c2ccccc2)c1 as the compound, how does the IC50 read?
Answer: The IC50 was over 10 µM.

Question: For Cc1ccc(C(=O)c2cnc(-c3ccccc3)n2S(=O)(=O)c2ccccc2)cc1, which IC50 is on record?
Answer: The IC50 was over 10 µM.

Question: For COc1cc(C(=O)c2c[nH]c(-c3ccccc3)n2)cc(OC)c1OC, which IC50 is on record?
Answer: Its IC50 is 0.12 µM.

Question: Which IC50 does the source give for COc1ccc(C(=O)c2c[nH]c(-c3ccccc3)n2)cc1 here?
Answer: Its IC50 is over 10 µM.

Question: With COc1cccc(C(=O)c2c[nH]c(-c3ccccc3)n2)c1 as the compound, how does the IC50 read?
Answer: The IC50 was over 10 µM.

Question: With O=C(c1ccc(F)cc1)c1cnc(-c2ccccc2)n1S(=O)(=O)c1ccccc1 as the compound, how does the IC50 read?
Answer: The IC50 was 0.946 µM.

Question: For O=C(c1cccc(F)c1)c1cnc(-c2ccccc2)n1S(=O)(=O)c1ccccc1, which IC50 is on record?
Answer: Its IC50 is over 10 µM.

Question: Which IC50 does the source give for COc1ccc(C(=O)c2c[nH]c(-c3ccccc3)n2)cc1OC here?
Answer: Its IC50 is over 10 µM.

Question: With COc1ccc(C(=O)n2ccnc2-c2ccccc2)cc1 as the compound, how does the IC50 read?
Answer: Its IC50 is over 10 µM.

tested on: LNCaP; experiment: Cytotoxicity against human LNCAP cells after 48 hrs by sulforhodamine B assay; type: functional, cell-based; settings: not given

Question: Which IC50 does the source give for O=C(c1cc(O)c(O)c(O)c1)c1c[nH]c(-c2ccc(O)c(O)c2)n1 here?
Answer: Its IC50 is over 10 µM.

Question: With COc1ccc(C(=O)c2cnc(-c3ccccc3)n2S(=O)(=O)c2ccccc2)cc1 as the compound, how does the IC50 read?
Answer: The IC50 was over 10 µM.

Question: Which IC50 does the source give for COc1cccc(C(=O)c2cnc(-c3ccccc3)n2S(=O)(=O)c2ccccc2)c1 here?
Answer: Its IC50 is over 10 µM.

Question: With Cc1ccc(C(=O)c2cnc(-c3ccccc3)n2S(=O)(=O)c2ccccc2)cc1 as the compound, how does the IC50 read?
Answer: Its IC50 is over 10 µM.

Question: With COc1cc(C(=O)c2c[nH]c(-c3ccccc3)n2)cc(OC)c1OC as the compound, how does the IC50 read?
Answer: Its IC50 is 0.15 µM.

Question: With COc1ccc(C(=O)c2c[nH]c(-c3ccccc3)n2)cc1 as the compound, how does the IC50 read?
Answer: Its IC50 is over 10 µM.

Question: For COc1cccc(C(=O)c2c[nH]c(-c3ccccc3)n2)c1, which IC50 is on record?
Answer: Its IC50 is over 10 µM.

Question: With O=C(c1ccc(F)cc1)c1cnc(-c2ccccc2)n1S(=O)(=O)c1ccccc1 as the compound, how does the IC50 read?
Answer: The IC50 was 0.573 µM.

Question: Which IC50 does the source give for O=C(c1cccc(F)c1)c1cnc(-c2ccccc2)n1S(=O)(=O)c1ccccc1 here?
Answer: Its IC50 is over 10 µM.

Question: Which IC50 does the source give for COc1ccc(C(=O)c2c[nH]c(-c3ccccc3)n2)cc1OC here?
Answer: The IC50 was over 10 µM.

Question: For COc1ccc(C(=O)n2ccnc2-c2ccccc2)cc1, which IC50 is on record?
Answer: The IC50 was over 10 µM.

tested on: PPC-1; experiment: Cytotoxicity against human PPC1 cells after 48 hrs by sulforhodamine B assay; type: functional, cell-based; settings: Homo sapiens, PPC-1, 48 h

Question: With O=C(c1cc(O)c(O)c(O)c1)c1c[nH]c(-c2ccc(O)c(O)c2)n1 as the compound, how does the IC50 read?
Answer: Its IC50 is over 10 µM.

Question: For COc1ccc(C(=O)c2cnc(-c3ccccc3)n2S(=O)(=O)c2ccccc2)cc1, which IC50 is on record?
Answer: The IC50 was over 10 µM.

Question: Which IC50 does the source give for COc1cccc(C(=O)c2cnc(-c3ccccc3)n2S(=O)(=O)c2ccccc2)c1 here?
Answer: Its IC50 is over 10 µM.

Question: With Cc1ccc(C(=O)c2cnc(-c3ccccc3)n2S(=O)(=O)c2ccccc2)cc1 as the compound, how does the IC50 read?
Answer: Its IC50 is over 10 µM.

Question: For COc1cc(C(=O)c2c[nH]c(-c3ccccc3)n2)cc(OC)c1OC, which IC50 is on record?
Answer: The IC50 was 0.13 µM.

Question: Which IC50 does the source give for COc1ccc(C(=O)c2c[nH]c(-c3ccccc3)n2)cc1 here?
Answer: Its IC50 is over 10 µM.

Question: For COc1cccc(C(=O)c2c[nH]c(-c3ccccc3)n2)c1, which IC50 is on record?
Answer: The IC50 was over 10 µM.

Question: Which IC50 does the source give for O=C(c1ccc(F)cc1)c1cnc(-c2ccccc2)n1S(=O)(=O)c1ccccc1 here?
Answer: The IC50 was 0.575 µM.

Question: Which IC50 does the source give for O=C(c1cccc(F)c1)c1cnc(-c2ccccc2)n1S(=O)(=O)c1ccccc1 here?
Answer: The IC50 was over 10 µM.

Question: With COc1ccc(C(=O)c2c[nH]c(-c3ccccc3)n2)cc1OC as the compound, how does the IC50 read?
Answer: Its IC50 is over 10 µM.

Question: Which IC50 does the source give for COc1ccc(C(=O)n2ccnc2-c2ccccc2)cc1 here?
Answer: Its IC50 is over 10 µM.
